Experimental data published in PubChem BioAssay AID2060893 (Molecular Pharmacology Branch, DTP, NCI, 2025).

system: K86415-001-R-J1-PDC complex spheroids, viability; experiment: Anticancer human tumor K86415-001-R-J1-PDC patient-derived lung adenocarcinoma cell line growth inhibition [RAS]; conditions: second compound 0.0316 µM; first compound 0.1 µM; hits give low values
Procedure, shortened: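 Agents were tested in combination matrices in half-log decrements from a top concentration at or near clinical Cmax (10 microM if undetermined). Targets were multi-cell spheroids of tumour lines plus HUVEC and MSC stromal cells.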
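Also: spheroids exposed to agents for seven days before readout.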

| Structure (SMILES) | viability, T/C [%] |
| --- | --- |
| O=C(c1ccc(F)c(F)c1Nc1ccc(I)cc1F)N1CC(O)([C@@H]2CCCCN2)C1 + C=CC(=O)N1CCN(c2nc(OCC3CCCN3C)nc3c(F)c(-c4nc(N)cc(C)c4C(F)(F)F)c(Cl)cc23)C(C)C1 | 5.71 |

same assay, conditions: second compound 0.0316 µM; first compound 0.316 µM; hits give low values

| Structure (SMILES) | viability, T/C [%] |
| --- | --- |
| CC(C)NCC(C(=O)N1CCN(c2ncnc3c2C(C)CC3O)CC1)c1ccc(Cl)cc1 (stereo unspecified) + C=CC(=O)N1CCN(c2nc(OCC3CCCN3C)nc3c(F)c(-c4nc(N)cc(C)c4C(F)(F)F)c(Cl)cc23)C(C)C1 | 6.32 |
| CC(Nc1ccc2c(c1)OCCn1cc(N3C(=O)OCC3C(F)F)nc1-2)C(N)=O (stereo unspecified) + C=CC(=O)N1CCN(c2nc(OCC3CCCN3C)nc3c(F)c(-c4nc(N)cc(C)c4C(F)(F)F)c(Cl)cc23)C(C)C1 | 5.95 |
| C[C@@H](NC(=O)c1ncnc(N)c1Cl)c1ncc(C(=O)Nc2cc(C(F)(F)F)c(Cl)cn2)s1 + C=CC(=O)N1CCN(c2nc(OCC3CCCN3C)nc3c(F)c(-c4nc(N)cc(C)c4C(F)(F)F)c(Cl)cc23)C(C)C1 | 10.3 |
| O=C(c1ccc(F)c(F)c1Nc1ccc(I)cc1F)N1CC(O)([C@@H]2CCCCN2)C1 + C=CC(=O)N1CCN(c2nc(OCC3CCCN3C)nc3c(F)c(-c4nc(N)cc(C)c4C(F)(F)F)c(Cl)cc23)C(C)C1 | 6.7 |

same assay, conditions: second compound 0.0316 µM; first compound 1 µM; hits give low values

| Structure (SMILES) | viability, T/C [%] |
| --- | --- |
| CC(C)NCC(C(=O)N1CCN(c2ncnc3c2C(C)CC3O)CC1)c1ccc(Cl)cc1 (stereo unspecified) + C=CC(=O)N1CCN(c2nc(OCC3CCCN3C)nc3c(F)c(-c4nc(N)cc(C)c4C(F)(F)F)c(Cl)cc23)C(C)C1 | 6.17 |
| CC(Nc1ccc2c(c1)OCCn1cc(N3C(=O)OCC3C(F)F)nc1-2)C(N)=O (stereo unspecified) + C=CC(=O)N1CCN(c2nc(OCC3CCCN3C)nc3c(F)c(-c4nc(N)cc(C)c4C(F)(F)F)c(Cl)cc23)C(C)C1 | 3.55 |
| C[C@@H](NC(=O)c1ncnc(N)c1Cl)c1ncc(C(=O)Nc2cc(C(F)(F)F)c(Cl)cn2)s1 + C=CC(=O)N1CCN(c2nc(OCC3CCCN3C)nc3c(F)c(-c4nc(N)cc(C)c4C(F)(F)F)c(Cl)cc23)C(C)C1 | 10.8 |
| O=C(c1ccc(F)c(F)c1Nc1ccc(I)cc1F)N1CC(O)([C@@H]2CCCCN2)C1 + C=CC(=O)N1CCN(c2nc(OCC3CCCN3C)nc3c(F)c(-c4nc(N)cc(C)c4C(F)(F)F)c(Cl)cc23)C(C)C1 | 2.39 |

same assay, conditions: second compound 0.0316 µM; first compound 3.16 µM; hits give low values

| Structure (SMILES) | viability, T/C [%] |
| --- | --- |
| CC(C)NCC(C(=O)N1CCN(c2ncnc3c2C(C)CC3O)CC1)c1ccc(Cl)cc1 (stereo unspecified) + C=CC(=O)N1CCN(c2nc(OCC3CCCN3C)nc3c(F)c(-c4nc(N)cc(C)c4C(F)(F)F)c(Cl)cc23)C(C)C1 | 6.03 |
| CC(Nc1ccc2c(c1)OCCn1cc(N3C(=O)OCC3C(F)F)nc1-2)C(N)=O (stereo unspecified) + C=CC(=O)N1CCN(c2nc(OCC3CCCN3C)nc3c(F)c(-c4nc(N)cc(C)c4C(F)(F)F)c(Cl)cc23)C(C)C1 | 2.24 |
| C[C@@H](NC(=O)c1ncnc(N)c1Cl)c1ncc(C(=O)Nc2cc(C(F)(F)F)c(Cl)cn2)s1 + C=CC(=O)N1CCN(c2nc(OCC3CCCN3C)nc3c(F)c(-c4nc(N)cc(C)c4C(F)(F)F)c(Cl)cc23)C(C)C1 | 11.4 |

same assay, conditions: second compound 0.0316 µM; first compound 10 µM; hits give low values

| Structure (SMILES) | viability, T/C [%] |
| --- | --- |
| CC(C)NCC(C(=O)N1CCN(c2ncnc3c2C(C)CC3O)CC1)c1ccc(Cl)cc1 (stereo unspecified) + C=CC(=O)N1CCN(c2nc(OCC3CCCN3C)nc3c(F)c(-c4nc(N)cc(C)c4C(F)(F)F)c(Cl)cc23)C(C)C1 | 3.62 |
| CC(Nc1ccc2c(c1)OCCn1cc(N3C(=O)OCC3C(F)F)nc1-2)C(N)=O (stereo unspecified) + C=CC(=O)N1CCN(c2nc(OCC3CCCN3C)nc3c(F)c(-c4nc(N)cc(C)c4C(F)(F)F)c(Cl)cc23)C(C)C1 | 1.34 |
| C[C@@H](NC(=O)c1ncnc(N)c1Cl)c1ncc(C(=O)Nc2cc(C(F)(F)F)c(Cl)cn2)s1 + C=CC(=O)N1CCN(c2nc(OCC3CCCN3C)nc3c(F)c(-c4nc(N)cc(C)c4C(F)(F)F)c(Cl)cc23)C(C)C1 | 10.2 |

same assay, conditions: second compound 0.1 µM; first compound 0.000316 µM; hits give low values

| Structure (SMILES) | viability, T/C [%] |
| --- | --- |
| CC(C)n1nc(-c2ccc3oc(N)nc3c2)c2c(N)ncnc21 + C=CC(=O)N1CCN(c2nc(OCC3CCCN3C)nc3c(F)c(-c4nc(N)cc(C)c4C(F)(F)F)c(Cl)cc23)C(C)C1 | 10.5 |

same assay, conditions: second compound 0.1 µM; first compound 0.001 µM; hits give low values

| Structure (SMILES) | viability, T/C [%] |
| --- | --- |
| CC(C)n1nc(-c2ccc3oc(N)nc3c2)c2c(N)ncnc21 + C=CC(=O)N1CCN(c2nc(OCC3CCCN3C)nc3c(F)c(-c4nc(N)cc(C)c4C(F)(F)F)c(Cl)cc23)C(C)C1 | 7.96 |

same assay, conditions: second compound 0.1 µM; first compound 0.00316 µM; hits give low values

| Structure (SMILES) | viability, T/C [%] |
| --- | --- |
| CC(C)n1nc(-c2ccc3oc(N)nc3c2)c2c(N)ncnc21 + C=CC(=O)N1CCN(c2nc(OCC3CCCN3C)nc3c(F)c(-c4nc(N)cc(C)c4C(F)(F)F)c(Cl)cc23)C(C)C1 | 7.44 |
| O=C(c1ccc(F)c(F)c1Nc1ccc(I)cc1F)N1CC(O)([C@@H]2CCCCN2)C1 + C=CC(=O)N1CCN(c2nc(OCC3CCCN3C)nc3c(F)c(-c4nc(N)cc(C)c4C(F)(F)F)c(Cl)cc23)C(C)C1 | 9.48 |

same assay, conditions: second compound 0.1 µM; first compound 0.01 µM; hits give low values

| Structure (SMILES) | viability, T/C [%] |
| --- | --- |
| CC(C)n1nc(-c2ccc3oc(N)nc3c2)c2c(N)ncnc21 + C=CC(=O)N1CCN(c2nc(OCC3CCCN3C)nc3c(F)c(-c4nc(N)cc(C)c4C(F)(F)F)c(Cl)cc23)C(C)C1 | 7.78 |
| O=C(c1ccc(F)c(F)c1Nc1ccc(I)cc1F)N1CC(O)([C@@H]2CCCCN2)C1 + C=CC(=O)N1CCN(c2nc(OCC3CCCN3C)nc3c(F)c(-c4nc(N)cc(C)c4C(F)(F)F)c(Cl)cc23)C(C)C1 | 8.63 |

same assay, conditions: second compound 0.1 µM; first compound 0.0316 µM; hits give low values

| Structure (SMILES) | viability, T/C [%] |
| --- | --- |
| CC(C)NCC(C(=O)N1CCN(c2ncnc3c2C(C)CC3O)CC1)c1ccc(Cl)cc1 (stereo unspecified) + C=CC(=O)N1CCN(c2nc(OCC3CCCN3C)nc3c(F)c(-c4nc(N)cc(C)c4C(F)(F)F)c(Cl)cc23)C(C)C1 | 17.1 |
| CC(C)n1nc(-c2ccc3oc(N)nc3c2)c2c(N)ncnc21 + C=CC(=O)N1CCN(c2nc(OCC3CCCN3C)nc3c(F)c(-c4nc(N)cc(C)c4C(F)(F)F)c(Cl)cc23)C(C)C1 | 5.11 |
| CC(Nc1ccc2c(c1)OCCn1cc(N3C(=O)OCC3C(F)F)nc1-2)C(N)=O (stereo unspecified) + C=CC(=O)N1CCN(c2nc(OCC3CCCN3C)nc3c(F)c(-c4nc(N)cc(C)c4C(F)(F)F)c(Cl)cc23)C(C)C1 | 8.36 |
| C[C@@H](NC(=O)c1ncnc(N)c1Cl)c1ncc(C(=O)Nc2cc(C(F)(F)F)c(Cl)cn2)s1 + C=CC(=O)N1CCN(c2nc(OCC3CCCN3C)nc3c(F)c(-c4nc(N)cc(C)c4C(F)(F)F)c(Cl)cc23)C(C)C1 | 13.1 |
| O=C(c1ccc(F)c(F)c1Nc1ccc(I)cc1F)N1CC(O)([C@@H]2CCCCN2)C1 + C=CC(=O)N1CCN(c2nc(OCC3CCCN3C)nc3c(F)c(-c4nc(N)cc(C)c4C(F)(F)F)c(Cl)cc23)C(C)C1 | 6.77 |
